Measured values reported in the METLIN SMRT retention time set (Domingo-Almenara et al. 2019).

Assay: gradient 5% acetonitrile 3 min, to 50% in 2 min, to 85% in 15 min, held 3 min, 100 µL/min
Conditions: column: Zorbax Extend-C18 2.1 x 50 mm; eluents: water / acetonitrile, 0.1% formic acid
Procedure, shortened: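 Each retention time is based on an adduct peak selected computationally and verified by manual inspection. Measurements used HPLC–quadrupole time-of-flight mass spectrometry in positive and negative ionization mode on mixtures of ~100 pure standards. Chromatography ran on a Zorbax Extend-C18 column (2.1 × 50 mm, 1.8 μm) at 100 μL/min with water and acetonitrile, each containing 0.1% formic acid, and dead and dwell volumes of 40 μL and 900 μL.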

| SMILES | RP-LC retention time [s] |
| --- | --- |
| COc1ccc(-c2cc3nn(CC(=O)NCC4CCCO4)c(=O)n3c(C)n2)cc1 (stereo unspecified) | 728 |
| Cn1c(=O)c(NCCc2c[nH]c3ccccc23)nc2ccncc21 | 619 |
| CCOCCCNC(=O)CC1CCN(c2ccnc(OC)n2)CC1 | 574 |
| COc1ccc(-c2cc(C(=O)NCCc3c[nH]c4ccccc34)[nH]n2)cc1 | 814 |
| CC(=O)N1CCc2cc(CNS(=O)(=O)Cc3ccccc3)ccc21 | 750 |
| Cc1cccc(-c2nc(Cn3nnc(-c4nc(-c5cccs5)no4)c3C)c(C)o2)c1 | 1220 |
| COc1ccc(Cc2nc3nccc(-c4cccnc4)n3n2)cc1 | 692 |
| Cc1ccc(N2CC(c3nc(-c4ccc5c(c4)oc(=O)n5C(C)C)no3)CC2=O)cc1 (stereo unspecified) | 990 |
| O=C(NC1CCCC1)C1CCCN(S(=O)(=O)c2c[nH]c(C(=O)N3CCCC3)c2)C1 (stereo unspecified) | 698 |
| C=CCN1CC[C@]23CCCCC2[C@H]1Cc1ccc(O)cc13 (stereo partly specified) | 691 |
| CCOc1ccc(CNC(=O)c2cnc(N3CCSCC3)nc2N)cc1 | 716 |
| Cc1nc(-c2csc(S(=O)(=O)N3CCCC(C(=O)Nc4ccc(Cl)cc4)C3)c2)no1 (stereo unspecified) | 1040 |
| CCCNC(=O)N1CCCN(C2=NS(=O)(=O)C(c3ccccc3)=C2C)CC1 | 735 |
| O=C(CNC(=O)C1CCCCC1)Nc1ccc(S(=O)(=O)Nc2ccccc2Cl)cc1 | 792 |
| O=C(NCC1CCCCC1)C1CCN(c2nnc3ccccn23)CC1 | 628 |
| CN(C)CCCCN1CCc2c(n(C)c3ccccc23)C1=O | 650 |
| Cc1cc(-c2nnc(C3CCC3)o2)c(C)n1CC(=O)NCc1ccc(F)cc1Cl | 899 |
| Cc1cc(-c2cc(S(=O)(=O)NCCCOC(C)C)c(C)s2)n[nH]1 | 770 |
| Cc1cc2c(cc1S(=O)(=O)N1CCCC1C(=O)N1CCc3ccccc31)OC(C)C(=O)N2 (stereo unspecified) | 825 |
| OC[C@@H]1CN(C2CCCC2)C[C@H]1c1nc(-c2cccnc2)no1 | 553 |
| CC(C)Cn1c(=O)c2cc(C(=O)Nc3ccc(N4CCOCC4)cc3)nn2c2ccccc21 | 953 |
| COc1cc2c(cc1OC)C1C(C(=O)Nc3ccc4c(c3)OCO4)c3ccccc3C(=O)N1CC2 (stereo unspecified) | 779 |
| NC(=O)Cn1c(CCc2ccccc2)nc2ccccc21 | 581 |

Results, then the compound that gave them:

| RP-LC retention time [s] | SMILES |
| --- | --- |
| 835 | Cc1nn(-c2ccc(Cl)cc2)c(C)c1S(=O)(=O)N1CCC(C(=O)NC2CC2)CC1 |
| 730 | Cc1ccc(NC(=O)CNS(=O)(=O)c2cc(-c3noc(C)n3)sc2C)nc1 |
| 933 | O=C(Nc1ccc(F)cc1)C1CCCN(S(=O)(=O)Cc2ccc(F)cc2)C1 (stereo unspecified) |
| 908 | Cc1ccc(Nc2cc(C)nc(N3CCN(C(=O)Nc4ccc(Cl)cc4)CC3)n2)cc1 |
| 595 | O=C(CCc1c[nH]c2ccccc12)NC1CCN(c2ccc(=O)[nH]n2)C1 (stereo unspecified) |
| 830 | CC12CC(NC(=O)N1c1cccc(C(=O)Nc3ccc4c(c3)OCCO4)c1)c1ccccc1O2 (stereo unspecified) |
| 718 | COc1ccc(CCN2CCC(CNS(=O)(=O)c3cc(-c4cc(C)no4)cs3)CC2)cc1 |
| 630 | COC(=O)c1ccc(NC(=O)CN2CCc3[nH]c4c(F)c(Cl)ccc4c(=O)c3C2)cc1 |
| 606 | CCSc1nnc(NC(=O)CSc2nncn2C)s1 |
| 637 | CCNC(=O)C1CCCN(c2nc3ncn(CC(=O)NC4CCCC4)c(=O)c3s2)C1 (stereo unspecified) |
| 715 | COC(=O)c1c(C)[nH]c(C(=O)N2CCC(CC(=O)NCc3ccc(OC)cc3)CC2)c1C |
| 961 | CCOCCCNS(=O)(=O)c1cc(-c2nc(C)c(C)s2)sc1C |
| 1120 | CCOc1ccc(N2C(=O)C3N=NN(Cc4nc(-c5ccc(OC(C)C)cc5)no4)C3C2=O)cc1 (stereo unspecified) |
